These results are taken from patent US20210009682A1, “REDUCING CUTANEOUS SCAR FORMATION AND TREATING SKIN CONDITIONS” (Northwestern University, priority 2013, published 2021).

Entries after “also recorded” stand apart in the source; their conditions may differ. Where a name gives a salt, the structure may show the parent alone.

One experiment concerns dermal fibroblasts. Briefly: Activation of dermal fibroblasts (α-SMA and pro-Col I expression) by HaCaT condition medium. In kind it is cell-based, human. The following applies: for activation of fibroblasts: PGE2 receptor blockade in condition medium from HaCaT with increased water loss. The procedure: FIGS. 3A-C. ENaC senses sodium concentration changes in keratinocytes and regulates downstream genes. Stratified HaCaT and fibroblast were co-cultured in transwell plates and subjected to increased water loss and control conditions for 16 hours. Expression of α-SMA and pro-Col I was detected in dermal fibroblasts (HDF) with their specific antibodies and visualized with fluorescence labeled secondary antibodies, Nuclei were stained with DAPI. (FIG. 3A, Panels A-D) Stratified HaCaT and fibroblasts in control condition. (FIG. 3A, Panels E-H) Stratified HaCaT and fibroblasts in increased water loss condition. (FIG. 3A, Panels I-L) Stratified ENaC knockdown HaCaT and fibroblasts in control condition. (FIG. 3A, Panels M-P) Stratified ENaC knockdown HaCaT and fibroblasts in increased water loss condition. (FIGS. 3B-C) The quantification of expression levels of α-SMA and pro-Col I by ImageJ. The scale bar represents 100 μm. *p<0.05, **p<0.01.
FIGS. 4A-C. Show results from Example 1 where it was determine that PGE2 is important for the activation of fibroblasts by keratinocytes. As described in Example 1, condition medium of stratified wild type (or ENaC knockdown) HaCaT culture under increased water loss was collected and supplemented to fibroblasts for 24 hours. Expression of α-SMA and pro-collagen I in dermal fibroblasts was tested as described in
FIG. 3. (FIG. 4A, Panels A-D) Wild type HaCaT condition medium (CM). (FIG. 4A, Panels E-H) ENaC-knockdown HaCaT condition medium. (FIG. 4A, Panels I-L) ENaC-knockdown HaCaT condition medium plus 10 μM of PGE2. (FIGS. 4B-C) Quantification of expression levels of α-SMA (FIG. 4B) and pro-Col I (FIG. 4C) was performed by ImageJ. The scale bar represents 100 μm. **p<0.01.
Since the PGE2 is a downstream product of COX-2 and found to be involved in regulation of fibroblast cytoskeletal dynamics during airway epithelium injury (37), it was hypothesized that PGE2 signaling is important for keratinocyte-fibroblast signaling. […]

Experiment [1] concerns rabbit ear hypertrophic scar. In words: Hypertrophic scar model in the rabbit ear (scar elevation index). In kind it is in vivo. Particulars: for scar elevation index (SEI): topical, harvested POD28. On the procedure:
As described in Example 1, full thickness 7 mm excision wounds were made on the ventral side of the rabbit ears at PODO. Amiloride (an ENaC inhibitor) or Celecoxib (a COX-2 inhibitor) was applied to the wounds every other day for a total of three times starting at POD14. Wounds harvested at POD28 and histological analysis was performed. (A-D) Representative pictures of wound histology at POD28. Rabbit ear wounds with Amiloride treatment (B) and control (A) and with Celecoxib treatment (D) and its control (C) are shown. (E) The scar elevation index (SEI) was calculated and used to evaluate the scar formation. (F. G) SEI. Twelve wounds for each dose of treatment and 12 controls were used for the analysis. *P<0.05. Scar bar stands for 1000 μm. **p<0.01. […] The present invention is not limited by such a mechanism and an understanding of the mechanism is not necessary to practice the present invention.
Sustained activation of dermal fibroblasts with accumulation of collagen is the main cause of hypertrophic scars (38, 39). […] The role of the ENaC-COX-2 pathway was investigated in vivo utilizing a well validated hypertrophic scar model in the rabbit ear (31, 40-43). Amiloride, an ENaC antagonist, was topically applied to the rabbit ear wounds after re-epithelialization was complete. Control scars, located on the contralateral ear, were treated with vehicle alone. In this model, absence of scar elevation gives a scar elevation index (SEI) of 1.0, and control wounds heal with an elevated scar (SEI >1). […] This reduction in scarring exceeds other therapies in validated model of hypertrophic scarring (14, 44, 45). In an identically designed experiment, Celecoxib, a COX-2 inhibitor, was applied on rabbit ear wounds to evaluate its effect on formation of hypertrophic scars. Similarly, treatment of 2 mg/wound of Celecoxib on rabbit ear wounds reduced the hypertrophy of the scar from 1.53±0.10 to 1.23±0.07 (FIG. 5C, D, and G).

The subject of experiment [2] is stratified keratinocytes (HaCaT). In words: Sodium flux by scanning ion-selective electrode technique (SIET) in stratified keratinocyte culture with increased water loss. In kind it is cell-based, human. The arrangement: dose or concentration left out as unconfirmed. The following applies: amiloride. On the procedure:
As described in Example 1, HESCs or stratified keratinocytes (HaCaT) were cultured for 16 hours in the indicated conditions and ion fluxes were measured immediately after the samples were submerged in the bathing buffer. Sodium flux in HESCs culture with increased water loss (A) or increased media sodium concentration (10% more than control) (B). Sodium flux in stratified keratinocytes culture with increased water loss (C) or sodium concentration (D). Calcium (E) or chloride (F) flux in stratified keratinocytes culture with increased water loss. (G) Sodium flux in amiloride treated stratified keratinocytes culture with increased water loss. […] Background readings were obtained more than 1000 μm away from the sample. *p<0.05, **p<0.01.
Increased trans-epidermal water loss results in higher sodium flux. To estimate the change of sodium flux of skin, the sodium flux was measured in human ex vivo skin culture (HESC), which retains important elements of in vivo skin and recapitulates the features of human wound repair (25, 26). […] To validate increased TEWL, expression levels of aquaporin 3 (AQP3) were measured, which has been reported as a molecular marker to indicate the hydration conditions of skin (27, 28). […]
Changes in sodium flux were evaluated using a scanning ion-selective electrode technique (SIET). […]

Experiment [3] concerns COX-2. Briefly: COX-2 mRNA expression by RT-qPCR in human foreskin keratinocytes (HK) culture. In kind it is cell-based. Particulars: HKs with calcium channel blocked. On the procedure: FIGS. 2A-F. Regulation of COX-2 and PGE2 by sodium flux is mediated by ENaC. FIGS. A and B show mRNA expression analysis of COX-2 as described in Example 1. (A) COX-2 mRNA expression in HESCs. HESCs were cultured with increased water loss condition for 4 or 16 hours (n=4). Total RNAs were isolated and RT-qPCR was performed. Gene expression was normalized according to the expression level of GAPDH. The level of COX-2 expression in HESCs treated with increased water loss was compared to that in control cells, which was set at 100% as expression level. (B) COX-2 mRNA expression keratinocytes culture. Stratified wild type or ENaC-knockdown HaCaT cells were cultured with increased water loss or sodium concentration condition for 16 hours (n=4). (C) PGE2 protein expression. Monolayer wild type or ENaC-knockdown HaCaT cells were cultured with increased sodium concentration condition for 16 hours (n=4). The amount of PGE2 in culture medium was measured by ELISA. (D) Western blot analysis (n=4). […] After 10, 30, 60, 240 minutes treatment, samples were harvested and western blot was performed with antibodies against phosphorylated-Akt, and Akt. β-actin was detected as a loading control. […] Cox-2 mRNA (E) and PGE2 (F) protein expression were analyzed by RT-qPCR and ELISA. *p<0.05, **p<0.01. […]
(In general: Quantitative PCR measures a nucleic acid by following its amplification.)

The subject of experiment [4] is COX-2. In words: Expression of COX-2 in keratinocytes incubated with trypsin. In kind it is cell-based, human. The following applies: for up-regulation of COX-2: high concentration of sodium stimulation.
The next experiment relates to IL-1β. Briefly: Expression of IL-1β in keratinocytes incubated with trypsin. In kind it is cell-based, human. Particulars: for up-regulation of IL-1β: high concentration of sodium stimulation. From the text:
(§1) FIGS. 9A-I. Prss8 is an important protein downstream of Nax. […] As a primary function, Prss8 can activate ENaC by cleaving its a subunit. The cleaved and non-cleaved bands can be visualized by an ENaC specific protein with western blotting (H). […] However, the cleavage of the ENaC a subunit was enhance by trypsin in Nax knockdown keratinocytes (H and I). FIG. 10. The keratinocytes differentiation with or without knockdown of Nax. Keratinocytes can be differentiated in differentiation medium to form a multiple cell layer structure like skin epidermis (Panel A). […] Knockdown of Nax inhibited the keratinocyte differentiation (Panel B) with the absence of K10 marker in the cell (Panel E). […] The expression of differentiation markers are similar to the differentiated wild type keratinocytes.
(§2) To further confirm the pathway of Nax-Prss8-ENaC, a Prss8 homolog, trypsin was used to activate the ENaC with the knockdown of Nax.

A further experiment has as its system ENaC a subunit. Briefly: Cleavage of the ENaC α subunit by western blotting in keratinocytes. In kind it is cell-based, human. The following applies: Nax knockdown keratinocytes.
Description: as §1
In general terms: A western blot detects proteins with antibodies after separation by electrophoresis.

The next experiment concerns keratinocytes. In words: Keratinocyte differentiation in differentiation medium (K14/K10 markers). In kind it is cell-based, human. The following applies: Nax knockdown keratinocytes, daily incubation with differentiation medium containing 10 ug/ml trypsin.
Description: as §1, §2

The next experiment relates to IL-8. Briefly: Expression of IL-8 in keratinocytes incubated with trypsin. The experiment is classed as cell-based, human. Particulars: for up-regulation of IL-8: high concentration of sodium stimulation.
Description: as §1, §2

[5] abbreviates: wild type keratinocytes, 10 μg/ml trypsin.

On to `CC(C)Oc1ccc2c(=O)c3cc(C(=O)O)ccc3oc2c1` [AH6809], for which the activation of fibroblasts result in the experiment with dermal fibroblasts was “reduced activation of fibroblasts to control levels”.

As to `CCCCCC(O)CCC1CCC(=O)N1CCCCCCC(=O)O` (centres unmarked) [CAY10580], the activation of fibroblasts result in the experiment with dermal fibroblasts is on record as “reduced activation of fibroblasts to control levels”.

`Cc1ccc(-c2cc(C(F)(F)F)nn2-c2ccc(S(N)(=O)=O)cc2)cc1` [Celecoxib]: in experiment [1] (rabbit ear wounds, 2 mg/wound), the “scar elevation index (SEI)” value came out at 1.23±0.07.

`CCCCC[C@H](O)/C=C/[C@H]1[C@H](O)CC(=O)[C@@H]1C/C=C\CCCC(=O)O` [PGE2, prostaglandin E2]: the “activation of fibroblasts (α-SMA and pro-Col I)” value in the experiment on dermal fibroblasts (10 μM PGE2 added to ENaC knockdown HaCaT culture conditioned medium, 24 hours) was “successfully rescued”.

Consider `N=C(N)NC(=O)c1nc(Cl)c(N)nc1N` [amiloride], for which, in experiment [2], the “enhanced sodium flux due to increased water loss” value is on record as “completely abolished”. In addition, the “scar formation / hypertrophy of rabbit ear scar (in words)” value in experiment [1] (rabbit ear scar treatment, 28 days post wounding) is recorded as “clearly showed the improvement of the scar formation”. In [1] (rabbit ear wounds, lower concentrations), the “reduction of scar formation compared to control wound healing groups” value was “did not show significant reduction”. Moreover, in experiment [1] (rabbit ear wounds, 0.5 mg/wound), the “scar elevation index (SEI)” value is listed as 1.06±0.05.

In the case of `COC(=O)C1=C(C)NC(C)=C(C(=O)OC2CCCN(Cc3ccccc3)C2)C1c1cccc([N+](=O)[O-])c1` (centres unmarked) [benidipine hydrochloride], in the experiment with COX-2 [3], the “increased expression levels of COX-2 during increased water loss or sodium concentration” value is recorded as “not abolished”.

For the molecule trypsin, the entries for the “up-regulation of COX-2” value in the experiment with COX-2 [4] (ENaC knockdown keratinocytes) and with COX-2 [4] (Nax knockdown keratinocytes) were “but not in ENaC knockdown cells” and “recovered the up-regulation; also recorded: up-regulated”, respectively. Moreover, the “expression of COX-2” value with COX-2 [4] (setting [5]) is “significantly increased”. The “up-regulation of IL-1β” value in the experiment with IL-1β (ENaC knockdown keratinocytes) is reported as “recovered the up-regulation”; in the experiment with IL-1β (Nax knockdown keratinocytes), “recovered the up-regulation; also recorded: up-regulated”. In the experiment on IL-1β (setting [5]), the “expression of IL-1β” value is on record as “significantly increased”. In addition, the “cleavage of the ENaC a subunit” value in the experiment on ENaC a subunit is recorded as “enhance”. Also, the differentiation of keratinocytes result in the experiment with keratinocytes is reported as “re-established the differentiation; also recorded: successfully recovered the differentiation”. For the same molecule, the “up-regulation of IL-8” value with IL-8 (ENaC knockdown keratinocytes) is “recovered the up-regulation”; in the experiment on IL-8 (Nax knockdown keratinocytes), “recovered the up-regulation; also recorded: up-regulated”. Further, the “expression of IL-8” value with IL-8 (setting [5]) is listed as “significantly increased”.
